This is an account of results in PMC8962522, “Direct interaction of TrkA/CD44v3 is essential for NGF-promoted aggressiveness of breast cancer cells” (Journal of Experimental & Clinical Cancer Research : CR, 2022).

This test concerns TrkA/CD44 complex in COS-7 cells transfected with TrkA and CD44s or CD44v6. As to the kind of experiment: PLA TrkA/CD44s or TrkA/CD44v6 complex formation in COS-7 cells. In kind it is cell-based, African green monkey (COS-7 cells). The settings on record: NGF 100 ng/ml, 0, 5 or 30 min. As to the method: Cells (10,000 cells per well) were grown on acid-washed eight-well glass slides (Thermo Scientific) in the appropriate medium supplemented with 10% FBS for 24 h. After NGF treatment, paraformaldehyde (PAF)-fixed cells were incubated with 4% bovine serum albumin (BSA) or 5% FBS (for 1 h at 20 °C), followed by overnight incubation with primary antibodies (rabbit anti-TrkA or rabbit anti-IgG + mouse anti-pan-CD44; mouse anti-CD44v3; mouse anti-CD44v6; mouse anti-IgG2a; mouse anti-IgG2b; or mouse anti-IgG1). PLA was performed following the manufacturer’s instructions in the assay kit (Duolink PLA; Sigma–Aldrich). To obtain the correct representation of the PLA signal for each condition, 30 fields per condition were observed using a fluorescence microscope (Eclipse TiU; Nikon, Japan). The PLA signals (red dots) were automatically quantified using ImageJ software (with an in-house-developed plug-in). […]
Supplementary file 13046_2022_2314_MOESM3_ESM.pdf: Additional file 3: Supplementary Figure 1. […] The expression of all CD44 isoforms (A), CD44 variant 3 (B), CD44 variant 6 (C) and TrkA ([…]; D) was evaluated by RT–qPCR (normalized using PUM-1). No expression of CD44, CD44 variants [3 or 6] or TrkA was detected in COS-7 cells (A-D) compared with that in cells transfected with the expression plasmid carrying each protein. […]

On to “NGF: recombinant human β-NGF (Alomone Labs, Israel)”, for which the “effect on TrkA/CD44s or TrkA/CD44v6 complex formation (PLA) in COS-7 cells” value is “Neither wild-type COS-7 cells nor COS-7 cells transfected with TrkA and the CD44s or CD44v6 isoform showed the formation of the dynamic TrkA/CD44 complex in PLA”.
